According to patent US9682938B2, “Pyrazolone derivatives as nitroxyl donors” (Cardioxyl Pharmaceuticals, Inc., priority 2014, dated 2017):

Experiments:
Assay type in all cases: in vitro ADME
[1] = In vitro plasma stability, dog plasma; details: male, pH 7.4, 5 μM, 37° C., sampling 0-360 minutes, read-out: T1/2 Dog
Method: (§1) Certain compounds from Table 1 were tested for their stability in plasma. The assay system comprised plasma from rat, dog or human (at least 3 donors, male, pooled) at pH 7.4, and (ii) an anticoagulant (sodium heparin or sodium citrate). Each test compound (5 μM) was incubated in plasma at 37° C. on a THERMOMIXER® with shaking. Three samples (n=3) were taken at each of seven sampling time points: 0, 10, 30, 60, 90, 180 and 360 minutes. The samples were immediately combined with 3 volumes (i.e., 3 times the volume of plasma) of acetonitrile containing 1% formic acid and an internal standard to terminate the reaction. AB SCIEX API 3000 LC-MS/MS analysis of the test compounds was performed without a standard curve. Plasma half-lives (T1/2) of the test compounds were determined from graphs of the percent remaining values using the peak area response ratio.

[2] = In vitro plasma stability, rat plasma; details: male, pH 7.4, 5 μM, 37° C., sampling 0-360 minutes, read-out: T1/2 Rat
Method: as §1

[3] = In vitro plasma stability, human plasma; details: male, pH 7.4, 5 μM, 37° C., sampling 0-360 minutes, read-out: T1/2 Human
Method: as §1

Row | SMILES | half-life at 5 μM [1] [min] | half-life at 5 μM [2] [min] | half-life at 5 μM [3] [min]
1 | CN1N=C(c2cccc(C(F)(F)F)c2)C(C)(NO)C1=O (stereo not drawn) [Compound 22, 4-(hydroxyamino)-2,4-dimethyl-5-(3-(trifluoromethyl)phenyl)-2,4-dihydro-3H-pyrazol-3-one] | 114 | 44 | 55
2 | CC(C)(C)C1=NN(c2ccccc2)C(=O)C1(C)NO (stereo not drawn) [Compound 23, 5-(tert-butyl)-4-(hydroxyamino)-4-methyl-2-phenyl-2,4-dihydro-3H-pyrazol-3-one] | 120 | 136 | 104
3 | CC1=NN(c2ccccc2)C(=O)C1(NO)c1ccccc1 (stereo not drawn) [Compound 24, 4-(hydroxyamino)-5-methyl-2,4-diphenyl-2,4-dihydro-3H-pyrazol-3-one] | 16 | 10 | 11
4 | CC(C)N1N=C(c2ccccc2F)C(C)(NO)C1=O (stereo not drawn) [Compound 26, 5-(2-fluorophenyl)-4-(hydroxyamino)-2-iso-propyl-4-methyl-2,4-dihydro-3H-pyrazol-3-one] | 65 | 42 | 45
5 | CC1=NN(C)C(=O)C1(NO)c1ccc(F)cc1 (stereo not drawn) [Compound 27, 4-(4-fluorophenyl)-4-(hydroxyamino)-2,5-dimethyl-2,4-dihydro-3H-pyrazol-3-one] | 23 | 19 | 21
6 | CC1=NN(C(C)C)C(=O)C1(NO)c1ccccc1 (stereo not drawn) [Compound 30, 4-(hydroxyamino)-1-isopropyl-3-methyl-4-phenyl-1H-pyrazol-5(4H)-one] | 84 | 32 | 22
7 | CCC1(NO)C(=O)N(C)N=C1c1ccccc1F (stereo not drawn) [Compound 31, 4-ethyl-5-(2-fluorophenyl)-4-(hydroxyamino)-2-methyl-2,4-dihydro-3H-pyrazol-3-one] | 201 | 66 | 59
8 | CC(C)N1N=C(c2ccc(S(C)(=O)=O)cc2)C(C)(NO)C1=O (stereo not drawn) [Compound 32, 4-(hydroxyamino)-2-iso-propyl-4-methyl-5-(4-(methylsulfonyl)phenyl)-2,4-dihydro-3H-pyrazol-3-one] | 148 | 64 | 100
9 | CC1=NN(c2ccc(S(C)(=O)=O)cc2)C(=O)C1(C)NO (stereo not drawn) [Compound 33, 4-(hydroxyamino)-4,5-dimethyl-2-(4-(methylsulfonyl)phenyl)-2,4-dihydro-3H-pyrazol-3-one] | 100 | 175 | 130
10 | CN1N=C(c2ccc([S+]([O-])C(F)(F)F)cc2)C(C)(NO)C1=O (stereo not drawn) [Compound 35, 4-(hydroxyamino)-2,4-dimethyl-5-(4-((trifluoromethyl)sulfinyl)phenyl)-2,4-dihydro-3H-pyrazol-3-one] | 44 | 79 | 76
11 | CSc1ccc(C2=NN(C)C(=O)C2(C)NO)cc1 (stereo not drawn) [Compound 36, 4-(hydroxyamino)-2,4-dimethyl-5-(4-(methylthio)phenyl)-2,4-dihydro-3H-pyrazol-3-one] | 133 | 300 | 152
12 | CC1=NN(C)C(=O)C1(NO)c1ccc(S(C)(=O)=O)cc1 (stereo not drawn) [Compound 37, 4-(hydroxyamino)-2,5-dimethyl-4-(4-(methylsulfonyl)phenyl)-2,4-dihydro-3H-pyrazol-3-one] | 3 | 5 | 8
13 | CN1N=C(c2ccc([S+](C)[O-])c(F)c2)C(C)(NO)C1=O (stereo not drawn) [Compound 38, 5-(3-fluoro-4-(methylsulfinyl)phenyl)-4-(hydroxyamino)-2,4-dimethyl-2,4-dihydro-3H-pyrazol-3-one] | 33 | 54 | 46
14 | Cc1cc(C2=NN(C)C(=O)C2(C)NO)ccc1[S+](C)[O-] (stereo not drawn) [Compound 39, 4-(hydroxyamino)-2,4-dimethyl-5-(3-methyl-4-(methylsulfinyl)phenyl)-2,4-dihydro-3H-pyrazol-3-one] | 59 | 134 | 60
15 | Cc1cc(C2=NN(C)C(=O)C2(C)NO)ccc1S(C)(=O)=O (stereo not drawn) [Compound 41, 4-(hydroxyamino)-2,4-dimethyl-5-(3-methyl-4-(methylsulfonyl)phenyl)-2,4-dihydro-3H-pyrazol-3-one] | 38 | 64 | 54
16 | CO/N=C(\C)C1(NO)C(=O)N(C)N=C1c1ccc(S(C)(=O)=O)cc1 (stereo not drawn) [Compound 42, 4-(hydroxyamino)-4-(1-(methoxyimino)ethyl)-2-methyl-5-(4-(methylsulfonyl)phenyl)-2,4-dihydro-3H-pyrazol-3-one] | 5 | 9 | 6

Row | SMILES | half-life at 5 μM [1] [min] | half-life at 5 μM [2] [min] | half-life at 5 μM [3] [min]
17 | COc1ccc(C2(NO)C(=O)N(C)N=C2C)cc1 (stereo not drawn) [Compound 43, 4-(hydroxyamino)-4-(4-methoxyphenyl)-1,3-dimethyl-1H-pyrazol-5(4H)-one] | 23 | 25 | 35
18 | CN1N=C(c2cc(F)c(S(C)(=O)=O)c(F)c2)C(C)(NO)C1=O (stereo not drawn) [Compound 45, 5-(3,5-difluoro-4-(methylsulfonyl)phenyl)-4-(hydroxyamino)-2,4-dimethyl-2,4-dihydro-3H-pyrazol-3-one] | 31 | 25 | 40
19 | CO/N=C(\C)C1(NO)C(=O)N(C)N=C1c1ccccc1 (stereo not drawn) [Compound 46, 4-(hydroxyamino)-4-(1-(methoxyimino)ethyl)-2-methyl-5-phenyl-2,4-dihydro-3H-pyrazol-3-one] | 12 | 9 | 11
20 | COc1ccc(C2=NN(C)C(=O)C2(C)NO)cc1 (stereo not drawn) [Compound 53, 4-(hydroxyamino)-3-(4-methoxyphenyl)-1,4-dimethyl-1H-pyrazol-5(4H)-one] | 256 | 350 | 480
21 | CN1N=C(c2ccc(OC(F)(F)F)cc2)C(C)(NO)C1=O (stereo not drawn) [Compound 59, 4-(hydroxyamino)-1,4-dimethyl-3-(4-(trifluoromethoxy)phenyl)-1-pyrazol-5(4H)-one] | 150 | 80 | 77
22 | CO/N=C(\C)C1(NO)C(=O)N(C)N=C1c1ccc(F)cc1 (stereo not drawn) [Compound 64, 3-(4-fluorophenyl)-4-(hydroxyamino)-4-(1-(methoxyimino)ethyl)-1-methyl-1H-pyrazol-5(4H)-one] | 16 | 6 | 8
23 | CC1=NN(C)C(=O)C1(NO)c1ccc(Cl)cc1 (stereo not drawn) [Compound 66, 4-(4-chlorophenyl)-4-(hydroxyamino)-1,3-dimethyl-1H-pyrazol-5(4H)-one] | 7 | 7 | 10
24 | CN1N=C(c2ccc(SC(F)(F)F)cc2)C(C)(NO)C1=O (stereo not drawn) [Compound 67, 4-(hydroxyamino)-1,4-dimethyl-3-(4-((trifluoromethyl)thio)phenyl)-1H-pyrazol-5(4H)-one] | 78 | 106 | 59
25 | CN1N=C(c2ccc(S(C)(=O)=O)c(Cl)c2)C(C)(NO)C1=O (stereo not drawn) [Compound 70, 3-(3-Chloro-4-methanesulfonylphenyl)-4-(hydroxyamino)-1,4-dimethyl-4,5-dihydro-1H-pyrazol-5-one] | 27 | 43 | 31
26 | COC(=O)c1ccc(C2=NN(C)C(=O)C2(C)NO)cc1 (stereo not drawn) [Compound 71, Methyl 4-[4-(hydroxyamino)-1,4 dimethyl-5-oxo-4,5-dihydro-1H-pyrazol-3-yl]benzoate] | 71 | 3 | 58
27 | CN1N=C(c2ccc(S(C)(=O)=NC(=O)C(F)(F)F)cc2)C(C)(NO)C1=O (stereo not drawn) [Compound 72, 2,2,2-Trifluoro-N-({4-[4-(hydroxyamino)-1,4-dimethyl-5-oxo-4,5-dihydro-1H-pyrazol-3-yl]phenyl}(methyl)oxo-λ^6-sulfanylidene)acetamide] | 12 | 9 | 13
28 | COc1ccc(C2(NO)C(=O)N(C)N=C2C)cc1OC (stereo not drawn) [Compound 73, 4-(3,4-Dimethoxyphenyl)-4-(hydroxyamino)-1,3-dimethyl-4,5-dihydro-1H-pyrazol-5-one] | 13 | 18 | 14
29 | CN1N=C(c2ccc(C(=O)O)cc2)C(C)(NO)C1=O (stereo not drawn) [Compound 74, 4-[4-(Hydroxyamino)-1,4-dimethyl-5-oxo-4,5-dihydro-1H-pyrazol-3-yl]benzoic acid] | 175 | 243 | 183
30 | COc1cc(C2=NN(C)C(=O)C2(C)NO)ccc1S(C)(=O)=O (stereo not drawn) [Compound 77, 4-(Hydroxyamino)-3-(4-methanesulfonyl-3-methoxyphenyl)-1,4-dimethyl-4,5-dihydro-1H-pyrazol-5-one] | 37 | 62 | 40
31 | Cc1cc(C2=NN(C)C(=O)C2(C)NO)cc(C)c1S(C)(=O)=O (stereo not drawn) [Compound 79, 4-(Hydroxyamino)-3-(4-methanesulfonyl-3,5-dimethylphenyl)-1,4-dimethyl-4,5-dihydro-1H-pyrazol-5-one] | 49 | 85 | 49
